Results on five compounds are retold here after DBAASP.

Some test systems named below: Escherichia coli 23A; Escherichia coli 27A; Staphylococcus aureus 6A; Acinetobacter sp.; Klebsiella aerogenes; Klebsiella sp.; Proteus mirabilis; Providencia stuartii; Escherichia coli K-12; Candida albicans; Candida tropicalis; Escherichia coli; Fusarium oxysporum; Fusarium solani; Ramulariopsis gossypii; Rhizoctonia solani; Staphylococcus aureus; Streptococcus uberis; Trichoderma asperellum; Spiroplasma citri R8A2.

Holding throughout (test): ≥ marks a high value that may be exact or a test limit, other limits are often not marked, values filed in µg/mL are converted to µM
Experiment [1] relates to Candida albicans ATCC 2002.
The test system of experiment [2] is Escherichia coli ATCC 25922.
Experiment [3] relates to Pseudomonas aeruginosa 3A.
For experiment [4], the system named is Pseudomonas aeruginosa 7A.
Experiment [5] deals with Staphylococcus aureus 15A.
Experiment [6] concerns Staphylococcus aureus ATCC 2592.
Experiment [7] relates to Escherichia coli NCTC 10418.
Experiment [8] deals with Escherichia coli NCTC 8007.
Experiment [9] relates to Staphylococcus aureus NCTC 10571.
Experiment [10] relates to Acinetobacter baumannii ATCC 19606.
Experiment [11] deals with Candida albicans ATCC 90028.
Experiment [12] relates to Cryptococcus neoformans var. grubii H99.
Experiment [13] deals with Klebsiella pneumoniae ATCC 700603.
Experiment [14] deals with Pseudomonas aeruginosa ATCC 27853.
The test system of experiment [15] is Staphylococcus aureus ATCC 43300.
In experiment [16] the test system is Staphylococcus aureus JE2.
In experiment [17] the test system is Acinetobacter calcoaceticus.
Experiment [18] relates to Bacillus cereus ATCC 14579.
Experiment [19] concerns Bacillus subtilis ATCC 23857.
For experiment [20], the system named is Candida albicans ATCC 1023.
Experiment [21] concerns Cryptococcus neoformans ATCC 28957.
Experiment [22] relates to Pectobacterium carotovorum.
In experiment [23] the test system is Pseudomonas syringae pv. tabaci.
Experiment [24] relates to Staphylococcus aureus ATCC 25923.
Experiment [25] relates to Staphylococcus aureus ATCC 29313.
Experiment [26] has as its system Streptococcus dysgalactiae.
For experiment [27], the system named is Xanthomonas axonopodis pv. glycines ISBF 327.
Experiment [28] deals with Xanthomonas campestris pv. citri.
The subject of experiment [29] is Acholeplasma laidlawii A-EF22.
The test system of experiment [30] is Mycoplasma mycoides ssp. mycoides SC KH3J.
The subject of experiment [31] is Spiroplasma floricola BNR 1.
The subject of experiment [32] is Spiroplasma melliferum BC3.

Values after ≈ are worked out from the molar mass of the structure shown. Values joined by “and” are separate entries in the source; they are usually repeats but may differ in a detail not shown here. Equal values may be shown once.

Broadly, the MIC is the smallest concentration in the dilution series that meets the test's criterion for growth inhibition. On to `CC[C@H](C)[C@H](NC(=O)[C@@H](NC(=O)[C@@H]1CCCN1C(=O)[C@H](CCSC)NC(=O)[C@@H](N)Cc1ccccc1)[C@@H](C)CC)C(=O)NCC(=O)N[C@@H](CCCN=C(N)N)C(=O)N[C@@H](CC(C)C)C(=O)N[C@@H](CCSC)C(=O)N[C@@H](CO)C(=O)NCC(=O)N[C@@H](CO)C(=O)N[C@@H](CC(C)C)C(=O)O` [FMPIIGRLMSGSL], for which the MIC in experiment [1] was found to be 21.1 µM (≈ 30 µg/mL); in the experiment on Escherichia coli 23A it was 5.28 µM (≈ 7.5 µg/mL); with Escherichia coli 27A it was 10.6 µM (≈ 15 µg/mL); in experiment [2], 5.28 µM (≈ 7.5 µg/mL); in [3], 2.64 µM (≈ 3.75 µg/mL); in experiment [4] it was 2.64 µM (≈ 3.75 µg/mL). The MIC in experiment [5] came to 0.703 µM (≈ 1 µg/mL); in the experiment on Staphylococcus aureus 6A, 2.64 µM (≈ 3.75 µg/mL); in experiment [6], 1.34 µM (≈ 1.9 µg/mL).

Consider `CSCC[C@H](NC(=O)[C@H](CC(N)=O)NC(=O)[C@H](CCCN=C(N)N)NC(=O)[C@H](CCC(N)=O)NC(=O)[C@H](Cc1c[nH]c2ccccc12)NC(=O)[C@H](CCC(N)=O)NC(=O)[C@@H](N)Cc1ccccc1)C(=O)N[C@@H](CCCN=C(N)N)C(=O)N[C@@H](CCCCN)C(=O)N[C@H](C(=O)N[C@@H](CCCN=C(N)N)C(=O)NCC(=O)N1CCC[C@H]1C(=O)N1CCC[C@H]1C(=O)N[C@H](C(=O)N[C@@H](CO)C(=O)O)C(C)C)C(C)C` [FQWQRNMRKVRGPPVS], for which the MIC was 2 µM (≈ 3.97 µg/mL) in the experiment on Acinetobacter sp.; at least 500 µM in experiment [7]; at least 500 µM in [8]; at least 1000 µM against Klebsiella aerogenes; at least 1000 µM in the experiment on Klebsiella sp.; at least 1000 µM in the experiment on Proteus mirabilis. Further, the figures for the MIC (in the experiment with Providencia stuartii; in experiment [9]) were at least 1000 µM and at least 500 µM, respectively.

Take `CC[C@H](C)[C@H](NC(=O)[C@@H](NC(=O)[C@H](CO)NC(=O)[C@H](C)NC(=O)[C@@H](NC(=O)[C@H](CCCCN)NC(=O)[C@H](CCCCN)NC(=O)[C@@H](NC(=O)[C@@H](NC(=O)[C@H](CCC(=O)O)NC(=O)[C@H](Cc1ccccc1)NC(=O)[C@H](CC(C)C)NC(=O)CN)C(C)C)[C@@H](C)CC)C(C)C)C(C)C)C(=O)NCC(=O)NCC(=O)N[C@@H](CC(C)C)C(=O)O` [GLFEVIKKVASVIGGL]: the minimal inhibitory concentration (MIC) in experiment [10] was above 19.6 µM; in experiment [11], 19.6 µM (≈ 32 µg/mL); in [12] it was 9.82 µM (≈ 16 µg/mL); in experiment [2] it was above 19.6 µM; in the experiment with Escherichia coli K-12 it was 19.6 µM (≈ 32 µg/mL); in experiment [13] it was above 19.6 µM. The MIC in [14] was above 19.6 µM; in experiment [15], 19.6 µM (≈ 32 µg/mL); in experiment [16], at least 39.3 µM.

Take `CC[C@H](C)[C@H](NC(=O)[C@H](C)NC(=O)[C@H](C)NC(=O)[C@H](CCC(=O)O)NC(=O)[C@H](CCCCN)NC(=O)CNC(=O)[C@H](CCCCN)NC(=O)[C@H](CCC(N)=O)NC(=O)[C@H](CCCCN)NC(=O)[C@@H](NC(=O)[C@@H](NC(=O)[C@H](CO)NC(=O)[C@H](Cc1c[nH]c2ccccc12)NC(=O)[C@H](CC(C)C)NC(=O)CN)[C@@H](C)O)[C@@H](C)CC)C(=O)N[C@@H](C)C(=O)N[C@@H](C)C(=O)N[C@@H](C)C(=O)N[C@@H](CCCCN)C(=O)N[C@@H](C)C(=O)N[C@@H](C)C(=O)NCC(=O)N[C@@H](CCC(N)=O)C(=O)N[C@@H](C)C(=O)N[C@@H](C)C(=O)N[C@@H](CC(C)C)C(=O)NCC(=O)N[C@@H](C)C(=O)N[C@@H](CC(C)C)C(N)=O` [GLWSTIKQKGKEAAIAAAKAAGQAALGAL]: the MIC in experiment [17] was 25.7 µM (≈ 71.7 µg/mL); in experiment [18] it was 16 µM (≈ 44.7 µg/mL); in [19], 1 µM (≈ 2.79 µg/mL); in experiment [20] it was 5.7 µM (≈ 15.9 µg/mL); in experiment [11], 4 µM (≈ 11.2 µg/mL); in the experiment on Candida albicans, 5.7 µM (≈ 15.9 µg/mL). For the same compound, the MIC in the experiment with Candida tropicalis was determined as 0.37 µM (≈ 1.03 µg/mL); in [21], 8 µM (≈ 22.4 µg/mL); against Escherichia coli it was 6.42 µM (≈ 17.9 µg/mL); in the experiment on Fusarium oxysporum, 16 µM (≈ 44.7 µg/mL); in the experiment on Fusarium solani it was 16 µM (≈ 44.7 µg/mL); in experiment [22] it was 0.5 µM (≈ 1.4 µg/mL). Besides, the MIC in experiment [23] is 1 µM (≈ 2.79 µg/mL); against Ramulariopsis gossypii, 8 µM (≈ 22.4 µg/mL); against Rhizoctonia solani it was at least 64 µM; in [24], 3.2 µM and 8 µM; in experiment [25], 11 µM (≈ 30.7 µg/mL); against Staphylococcus aureus, 12.8 µM and 5.7 µM. Moreover, the MIC in experiment [26] was found to be 5.7 µM (≈ 15.9 µg/mL); in the experiment on Streptococcus uberis, 5.7 µM (≈ 15.9 µg/mL); with Trichoderma asperellum, 8 µM (≈ 22.4 µg/mL); in experiment [27] it was 1 µM (≈ 2.79 µg/mL); in experiment [28], 0.5 µM (≈ 1.4 µg/mL).

With `CC(C)C[C@H](NC(=O)[C@H](CCCCN)NC(=O)[C@H](CC(C)C)NC(=O)[C@H](CC(C)C)NC(=O)[C@H](CC(C)C)NC(=O)[C@H](CCCCN)NC(=O)[C@H](CC(C)C)NC(=O)[C@H](CC(C)C)NC(=O)[C@H](CC(C)C)NC(=O)[C@H](CCCCN)NC(=O)[C@H](CC(C)C)NC(=O)[C@H](CC(C)C)NC(=O)[C@@H](N)CCCCN)C(=O)N[C@@H](Cc1c[nH]c2ccccc12)C(=O)N[C@@H](CCCCN)C(=O)O` [KLLKLLLKLLLKLWK], the MIC in experiment [29] is 1.56 µM (≈ 2.91 µg/mL); in experiment [30], 6.25 µM (≈ 11.6 µg/mL); against Spiroplasma citri R8A2 it was 6.25 µM (≈ 11.6 µg/mL); in experiment [31], 6.25 µM (≈ 11.6 µg/mL); in experiment [32], 6.25 µM (≈ 11.6 µg/mL).
